Test results as given in patent publication US20090283473A1, “PLANT MATERIALS EXTRACTION METHOD” (Xylon Biotechnologies Ltd., priority 2002, published 2009).

How the values were obtained:
Format in all cases: cell-based
[1] = test system: Pseudomonas aeruginosa; assay: Disk diffusion assay on agar plates; parameters: key: “+” active; “−” not active
Text: (§1) Microorganisms: Laboratory strains of bacteria and fungus were obtained from Dr. Neil Towers' and Dr. Jovel's lab, The University of British Columbia. Seven species of bacteria and one species of fungus will be used in the screening process. The bacteria strains consisted of Staphylococcus aureus, methicillin resistant Staphylococcus aureus, Bacillus subtilis and Enterococcus faecalis, Escherichia coli, Pseudomonas aeruginosa, and Salmonella typhimurium. The fungal species was Candida albicans.
(§2) Methods: Disk diffusion assay on agar plates inoculated with the organisms being studies. The plates were divided into quadrants or sixths using a black marking pen. In quadrant 1 and 2, negative and positive controls were run (no treatment and gentamicin). Test compounds were run on the remaining available portions.

[2] = test system: Seven species of bacteria and one species of fungus; assay: Disk diffusion assay, whole panel; conditions: all bacteria and fungus of the screening
Text: as §1, §2

[3] = test system: Candida albicans; assay: Disk diffusion assay on agar plates; parameters: key: “+” active; “−” not active
Text: as §1, §2

[4] = test system: Enterococcus faecalis; assay: Disk diffusion assay on agar plates; parameters: key: “+” active; “−” not active
Text: as §1, §2

Compound	Anti-microbial activity P.a [1]	anti-microbial activity across the panel (in words) [2]	Anti-microbial activity C.a [3]	Anti-microbial activity E.f. [4]
CC1(C)C=CC=C(C(=O)O)C=C1 [Thujic acid standard, Thujic acid]	−	showed activities against some bacteria and fungus		
CC(C)c1cccc(=O)c(O)c1 [Hinokitiol standard, 2,4,6-Cycloheptatrien-1-one,2-hydroxy-4-(1-methylethyl)]		demonstrated activities against all the bacteria and fungus		
Gentamicin		active against all the tested bacteria but not against C. albicans	−	+
